From the NIST ThermoML archive (doi:10.1016/j.fluid.2010.09.006)

Details: 345.7 K; Crystal; visual observation

- vapor or sublimation pressure: 3000 kPa
Structure (SMILES): c1ccc2ccccc2c1 [naphthalene]
